What was measured:
[1] = test system: HepG2-tumors grown on membranes of fertilized chicken eggs; experiment: Chorioallantoic membrane (CAM) assay; type: in vivo
Protocol: The chorioallantoic membrane (CAM) assay was performed as described previously. Fertilized chicken eggs (Gallus gallus) were obtained from commercial sources (Valo GmbH, Germany) and incubated in a humid environment at 38 °C. On day 3 of the egg development, a window was cut in the eggshell to access the developing vascular network of the CAM. At day 10 of chicken embryo development, a sterile silicon ring (10 mm diameter) was placed on the CAM and tumor plugs of 3 × 10^6 HepG2 cells in 20 µL Matrigel (BD Biosciences) with reduced growth factors were placed inside the silicon ring. After 24 h at 38 °C in an incubator, the tumor plaques attached and connected to the (tumor-)feeding CAM microvasculature. Then, the tumor plaques were topically treated with either PBS (negative control) or PBS containing rising concentrations of 1b (0–10 µM), 1c (0–2.5 µM) or sorafenib (10 μM) for 3 days. Tumor growth and viability of the embryo were controlled daily by stereo microscopy. After 72 h of treatment, the tumors were recovered for weighing and pictures were taken using a stereomicroscope equipped with a Kappa digital camera system (Kappa Optronics GmbH, Germany). For data analysis, the tumor weight of 1c-treated and untreated control tumors was determined and the mean weight of treated vs. untreated tumors of 11 eggs for each condition was calculated. Statistical significance evaluated by one-way ANOVA tests.

[2] = biological target: T1, Pim-2 (Homo sapiens, UniProt Q9P1W9); experiment: Enzymatic kinase assay (Eurofins KinaseProfiler); type: biochemical; conditions: 10 µM compound, cell-free
T1 construct: purchased Eurofins KinaseProfiler service (Eurofins, France)
Protocol: (§1) The kinase inhibiting potency of compound 1a, 1b and 1c (10 µM) was screened in a cell-free kinase assay, which consisted of a custom panel of 43 human protein kinases for 1c (listed in Figure 5A), as well as a subpanel of six kinases for 1a and 1b (Figure 5B). The initial panel was chosen to screen the lead compound 1c based on the union of two strategies. A total of 29 kinases were selected based on the correlated results of three in silico target prediction methods including structure- as well as ligand-based techniques and 20 kinases because of their relevance for HCC (note that six kinases were part of both strategies).
(§2) The assay was performed by Eurofins KinaseProfilerTM service (Eurofins, France) and the determination of enzymatic activity was assessed as previously described. Additionally, an IC50 determination of compound 1c against the VEGFR-2 was performed with a concentration range of 0.003 to 30 µM.

[3] = biological target: T2, VEGFR-2 (KDR) (Homo sapiens, UniProt P35968); experiment: Enzymatic kinase assay (Eurofins KinaseProfiler); type: biochemical
T2 construct: purchased Eurofins KinaseProfiler service (Eurofins, France)
Protocol: as §1, §2

[4] = biological target: T3, EGFR (Homo sapiens, UniProt P00533); experiment: Enzymatic kinase assay (Eurofins KinaseProfiler); type: biochemical; conditions: 10 µM compound, cell-free
T3 construct: purchased Eurofins KinaseProfiler service (Eurofins, France)
Protocol: as §1, §2

[5] = biological target: T4, Pim-1 (Homo sapiens, UniProt P11309); experiment: Enzymatic kinase assay (Eurofins KinaseProfiler); type: biochemical; conditions: 10 µM compound, cell-free
T4 construct: purchased Eurofins KinaseProfiler service (Eurofins, France)
Protocol: as §1, §2

[6] = biological target: T5, VEGFR-1 (Homo sapiens, UniProt P17948); experiment: Enzymatic kinase assay (Eurofins KinaseProfiler); type: biochemical; conditions: 10 µM compound, cell-free
T5 construct: purchased Eurofins KinaseProfiler service (Eurofins, France)
Protocol: as §1, §2

[7] = biological target: T6, IGF-1R (Homo sapiens, UniProt P08069); experiment: Enzymatic kinase assay (Eurofins KinaseProfiler); type: biochemical; conditions: 10 µM compound, cell-free
T6 construct: purchased Eurofins KinaseProfiler service (Eurofins, France)
Protocol: as §1, §2

[8] = biological target: T7, c-KIT (Homo sapiens, UniProt P10721); experiment: Enzymatic kinase assay (Eurofins KinaseProfiler); type: biochemical; conditions: 10 µM compound, cell-free
T7 construct: purchased Eurofins KinaseProfiler service (Eurofins, France)
Protocol: as §1, §2

[9] = biological target: T8, CLK1 (Homo sapiens, UniProt P49759); experiment: Enzymatic kinase assay (Eurofins KinaseProfiler); type: biochemical; conditions: 10 µM compound, cell-free
T8 construct: purchased Eurofins KinaseProfiler service (Eurofins, France)
Protocol: as §1, §2

[10] = test system: human HepG2 hepatoblastoma cells; experiment: Growth inhibition, crystal violet staining, HepG2; type: cell-based; conditions: 48 h incubation, mean ± SD, read-out: Anti-proliferative activity IC50, HepG2
Protocol: (§3) The well-differentiated p53 wild-type human hepatoblastoma cell line HepG2 (ATCC# 8065) and the highly differentiated p53 mutated human hepatocellular carcinoma cell line Huh-7 (JCRB#0403) were grown in RPMI 1640 medium supplemented with 10% fetal bovine serum and 100 U/mL penicillin and […] streptomycin. Murine AML-12 hepatocytes were obtained from ATCC (CRL-2254) and grown in DMEM/F-12 Glutamax medium supplemented with 10% fetal bovine serum, 10 µg/mL insulin, 5.5 µg/mL transferrin, 5 ng/mL selenium (Gibco ITS-G 100X) and 40 ng/mL dexamethasone (Sigma-Aldrich). All cell lines were incubated in a 37 °C, 5% CO2, 95% humidified atmosphere.
(§4) Treatment-induced changes in cell number were evaluated by crystal violet staining, as previously described. Briefly, 1.500 cells per well were seeded in 96-well plates for 24 h at 37 °C, 5% CO2. For the experiments with HepG2 and Huh-7 cell lines, cells were incubated with rising concentrations (0–20 µM) of the new compounds (1a–1o) for 48 h. AML12-cells were treated with compounds 1a, 1b, 1c, 1e, 1i and 1j for 48 h and at concentrations ranging from 0.5–64 µM. Thereafter, the cells were fixed with 1% glutaraldehyde and stained with 0.1% crystal violet (Sigma-Aldrich). The unbound dye was removed by rinsing with water. Bound crystal violet was solubilized with 0.2% Triton X-100 (Sigma-Aldrich). Light extinction of crystal violet, which increases linearly with cell number, was analyzed at 570 nm using an ELISA-Reader (Dynex Technologies, Denkendorf, Germany). All experiments were carried out in duplicate or triplicate.

[11] = test system: panel of 43 human protein kinases; experiment: Enzymatic kinase panel screening; type: biochemical; conditions: 10 µM compound
Protocol: as §1, §2

[12] = test system: PDGFR; experiment: Enzymatic kinase assay (Eurofins KinaseProfiler); type: biochemical, human; conditions: 10 µM compound, cell-free
Protocol: as §1, §2

[13] = test system: FGFR; experiment: Enzymatic kinase assay (Eurofins KinaseProfiler); type: biochemical, human; conditions: 10 µM compound, cell-free
Protocol: as §1, §2

[14] = test system: HepG2 cells; experiment: LDH release assay (unspecific cytotoxicity); type: cell-based, human; conditions: HepG2, 0.5 and 10 µM, 12 or 24 h
Protocol: Unspecific cytotoxicity induced by treatment with 0.5 µM and 10 µM of 1a, 1b, 1c and sorafenib (LC Laboratories, Woburn, MA, USA) was determined by measuring the release of lactate dehydrogenase (LDH) from HepG2 cells into the supernatant after 12 and 24 h (Cytotoxicity Detection KitPLUS LDH, Roche Diagnostics GmbH, Mannheim, Germany). The supernatant of treated samples was collected, and adherent non-treated cells were lysed with 2% Triton X-100 for 10 min to determine the maximum LDH release. All samples were mixed with catalyst and dye solution for 30 min, resulting in the formation of formazan dye proportional to LDH enzyme activity. The absorbance was measured at 490/630 nm using an ELISA reader (Dynex Technologies, Denkendorf, Germany) and cytotoxicity was determined by subtracting the percentage of LDH release under control conditions of those from treated samples. Experiments were performed in duplicate and data are given as mean percentage changes ± SD as compared to controls of n = 3 experiments.

[15] = test system: human Huh-7 HCC cells; experiment: Growth inhibition, crystal violet staining, Huh-7; type: cell-based; conditions: 48 h incubation, mean ± SD, read-out: Anti-proliferative activity IC50, Huh-7
Protocol: as §3, §4

T2 sequence (P35968 20-1356): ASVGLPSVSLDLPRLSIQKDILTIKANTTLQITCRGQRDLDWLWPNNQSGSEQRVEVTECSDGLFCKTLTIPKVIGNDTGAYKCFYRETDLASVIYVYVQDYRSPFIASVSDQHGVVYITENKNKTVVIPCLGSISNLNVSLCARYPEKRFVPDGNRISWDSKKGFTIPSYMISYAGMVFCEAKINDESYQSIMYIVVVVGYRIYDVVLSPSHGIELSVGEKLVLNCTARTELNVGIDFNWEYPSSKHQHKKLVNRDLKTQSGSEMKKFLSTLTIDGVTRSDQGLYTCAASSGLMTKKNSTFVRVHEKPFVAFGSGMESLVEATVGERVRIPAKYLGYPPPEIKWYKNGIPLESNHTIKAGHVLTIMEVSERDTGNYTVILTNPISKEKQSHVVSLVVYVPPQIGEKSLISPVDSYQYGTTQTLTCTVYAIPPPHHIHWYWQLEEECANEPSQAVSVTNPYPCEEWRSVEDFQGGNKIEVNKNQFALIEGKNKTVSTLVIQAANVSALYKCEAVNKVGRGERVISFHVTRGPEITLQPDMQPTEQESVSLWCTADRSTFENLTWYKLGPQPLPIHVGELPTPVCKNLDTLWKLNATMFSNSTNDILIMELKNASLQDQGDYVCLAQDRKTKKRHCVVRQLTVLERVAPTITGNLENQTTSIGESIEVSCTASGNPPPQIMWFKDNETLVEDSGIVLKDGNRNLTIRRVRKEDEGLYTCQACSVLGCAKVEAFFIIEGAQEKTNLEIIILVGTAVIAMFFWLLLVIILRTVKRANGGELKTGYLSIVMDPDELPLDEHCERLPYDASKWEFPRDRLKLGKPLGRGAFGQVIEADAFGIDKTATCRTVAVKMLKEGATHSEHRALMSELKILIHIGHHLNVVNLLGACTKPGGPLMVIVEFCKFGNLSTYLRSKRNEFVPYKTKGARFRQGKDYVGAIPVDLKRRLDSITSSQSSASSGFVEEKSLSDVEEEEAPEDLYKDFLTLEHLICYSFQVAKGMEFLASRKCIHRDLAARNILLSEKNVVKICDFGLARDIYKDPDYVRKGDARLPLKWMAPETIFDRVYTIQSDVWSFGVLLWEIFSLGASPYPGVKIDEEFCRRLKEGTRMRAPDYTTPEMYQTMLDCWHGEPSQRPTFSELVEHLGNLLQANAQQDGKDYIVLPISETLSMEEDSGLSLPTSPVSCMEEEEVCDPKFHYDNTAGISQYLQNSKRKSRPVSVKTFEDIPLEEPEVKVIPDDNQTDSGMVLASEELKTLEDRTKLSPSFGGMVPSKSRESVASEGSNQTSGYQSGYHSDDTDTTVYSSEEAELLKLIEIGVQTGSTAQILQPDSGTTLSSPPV
T8 sequence (P49759 whole entry): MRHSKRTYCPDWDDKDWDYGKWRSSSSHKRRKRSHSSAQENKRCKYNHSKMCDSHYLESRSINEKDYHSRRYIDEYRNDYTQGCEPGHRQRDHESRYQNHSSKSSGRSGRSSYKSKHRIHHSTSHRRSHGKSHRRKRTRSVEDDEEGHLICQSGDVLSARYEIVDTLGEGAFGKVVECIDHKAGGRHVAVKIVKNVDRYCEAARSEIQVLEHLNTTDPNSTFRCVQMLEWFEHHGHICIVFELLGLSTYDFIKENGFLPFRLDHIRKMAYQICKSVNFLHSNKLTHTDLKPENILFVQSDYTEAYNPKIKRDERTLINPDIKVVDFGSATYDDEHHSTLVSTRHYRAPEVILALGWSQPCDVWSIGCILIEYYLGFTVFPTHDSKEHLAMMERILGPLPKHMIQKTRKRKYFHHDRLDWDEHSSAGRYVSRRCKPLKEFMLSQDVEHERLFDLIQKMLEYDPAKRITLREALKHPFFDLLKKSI
T6 sequence (P08069 31-1367): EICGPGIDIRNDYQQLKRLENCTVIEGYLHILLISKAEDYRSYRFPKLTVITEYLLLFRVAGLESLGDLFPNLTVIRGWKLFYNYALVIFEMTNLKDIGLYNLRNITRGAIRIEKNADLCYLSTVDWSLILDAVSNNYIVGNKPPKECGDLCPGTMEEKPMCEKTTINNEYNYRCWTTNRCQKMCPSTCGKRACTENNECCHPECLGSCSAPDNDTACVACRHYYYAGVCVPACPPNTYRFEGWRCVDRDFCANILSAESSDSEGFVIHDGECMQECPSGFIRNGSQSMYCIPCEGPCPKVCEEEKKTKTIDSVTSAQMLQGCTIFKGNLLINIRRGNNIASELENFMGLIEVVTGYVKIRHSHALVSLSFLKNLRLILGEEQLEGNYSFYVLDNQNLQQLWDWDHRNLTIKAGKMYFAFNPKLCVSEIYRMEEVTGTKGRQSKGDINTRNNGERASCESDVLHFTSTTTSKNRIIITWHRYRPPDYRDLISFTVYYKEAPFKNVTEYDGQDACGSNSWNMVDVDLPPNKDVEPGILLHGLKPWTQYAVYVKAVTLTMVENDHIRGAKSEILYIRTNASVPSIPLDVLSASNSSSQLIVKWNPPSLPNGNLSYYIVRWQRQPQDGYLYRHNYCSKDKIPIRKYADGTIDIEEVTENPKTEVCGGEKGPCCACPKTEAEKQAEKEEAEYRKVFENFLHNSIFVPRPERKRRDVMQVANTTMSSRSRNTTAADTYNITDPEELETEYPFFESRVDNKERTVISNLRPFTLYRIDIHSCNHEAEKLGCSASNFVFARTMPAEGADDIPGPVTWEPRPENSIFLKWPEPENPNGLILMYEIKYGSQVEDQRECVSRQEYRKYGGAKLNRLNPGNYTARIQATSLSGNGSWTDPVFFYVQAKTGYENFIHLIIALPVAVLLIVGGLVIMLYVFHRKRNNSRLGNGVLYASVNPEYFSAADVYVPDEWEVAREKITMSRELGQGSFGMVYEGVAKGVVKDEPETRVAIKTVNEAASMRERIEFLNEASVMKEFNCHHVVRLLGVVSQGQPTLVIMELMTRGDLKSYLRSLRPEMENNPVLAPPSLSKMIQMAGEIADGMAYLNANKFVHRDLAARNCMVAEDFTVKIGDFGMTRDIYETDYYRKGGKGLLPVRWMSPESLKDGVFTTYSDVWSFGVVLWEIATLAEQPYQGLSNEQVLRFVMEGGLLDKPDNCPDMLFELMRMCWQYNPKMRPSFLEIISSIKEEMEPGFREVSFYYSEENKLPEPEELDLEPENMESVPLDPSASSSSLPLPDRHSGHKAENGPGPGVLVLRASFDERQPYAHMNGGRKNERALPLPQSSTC
T4 sequence (P11309 whole entry): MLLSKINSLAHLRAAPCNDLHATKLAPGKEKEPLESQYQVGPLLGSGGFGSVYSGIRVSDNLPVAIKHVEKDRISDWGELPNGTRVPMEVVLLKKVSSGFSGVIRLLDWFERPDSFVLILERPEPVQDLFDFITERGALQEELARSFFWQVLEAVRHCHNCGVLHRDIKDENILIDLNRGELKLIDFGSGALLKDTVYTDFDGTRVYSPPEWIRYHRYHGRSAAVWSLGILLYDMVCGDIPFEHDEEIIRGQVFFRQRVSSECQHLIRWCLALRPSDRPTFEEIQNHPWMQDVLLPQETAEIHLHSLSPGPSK
T5 sequence (P17948 27-1338): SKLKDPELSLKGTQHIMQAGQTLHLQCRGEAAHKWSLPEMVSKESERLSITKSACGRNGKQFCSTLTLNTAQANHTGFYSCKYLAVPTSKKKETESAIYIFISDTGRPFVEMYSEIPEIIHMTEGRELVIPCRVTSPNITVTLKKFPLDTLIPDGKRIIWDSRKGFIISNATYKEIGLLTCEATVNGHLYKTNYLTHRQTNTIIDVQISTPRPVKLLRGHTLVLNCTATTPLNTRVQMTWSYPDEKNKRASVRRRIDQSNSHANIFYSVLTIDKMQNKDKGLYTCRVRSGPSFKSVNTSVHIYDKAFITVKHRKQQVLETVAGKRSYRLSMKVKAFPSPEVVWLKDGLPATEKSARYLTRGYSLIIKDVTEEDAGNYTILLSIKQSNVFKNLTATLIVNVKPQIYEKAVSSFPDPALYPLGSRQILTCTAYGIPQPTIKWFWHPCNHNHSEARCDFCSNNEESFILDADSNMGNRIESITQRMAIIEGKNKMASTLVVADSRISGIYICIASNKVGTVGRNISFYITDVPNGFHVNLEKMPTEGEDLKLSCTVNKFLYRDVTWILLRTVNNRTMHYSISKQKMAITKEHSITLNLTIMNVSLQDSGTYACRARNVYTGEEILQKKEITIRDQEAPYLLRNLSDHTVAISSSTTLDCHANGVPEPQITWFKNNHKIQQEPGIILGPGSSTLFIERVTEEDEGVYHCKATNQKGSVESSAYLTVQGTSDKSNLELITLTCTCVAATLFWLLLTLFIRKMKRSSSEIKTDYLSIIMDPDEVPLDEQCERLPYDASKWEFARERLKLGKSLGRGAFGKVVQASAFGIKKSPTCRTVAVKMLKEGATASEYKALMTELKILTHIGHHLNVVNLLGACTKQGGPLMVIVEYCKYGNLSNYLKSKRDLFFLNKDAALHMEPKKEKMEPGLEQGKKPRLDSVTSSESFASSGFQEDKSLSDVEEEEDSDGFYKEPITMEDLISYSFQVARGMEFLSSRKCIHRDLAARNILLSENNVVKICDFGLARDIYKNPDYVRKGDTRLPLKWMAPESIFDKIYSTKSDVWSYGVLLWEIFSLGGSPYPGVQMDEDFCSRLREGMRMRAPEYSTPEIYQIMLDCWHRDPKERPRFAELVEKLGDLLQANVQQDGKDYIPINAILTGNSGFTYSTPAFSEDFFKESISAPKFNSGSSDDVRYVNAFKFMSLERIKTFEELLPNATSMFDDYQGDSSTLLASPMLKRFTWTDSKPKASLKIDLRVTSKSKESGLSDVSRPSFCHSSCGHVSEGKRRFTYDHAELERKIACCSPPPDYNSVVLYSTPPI
T1 sequence (Q9P1W9 whole entry): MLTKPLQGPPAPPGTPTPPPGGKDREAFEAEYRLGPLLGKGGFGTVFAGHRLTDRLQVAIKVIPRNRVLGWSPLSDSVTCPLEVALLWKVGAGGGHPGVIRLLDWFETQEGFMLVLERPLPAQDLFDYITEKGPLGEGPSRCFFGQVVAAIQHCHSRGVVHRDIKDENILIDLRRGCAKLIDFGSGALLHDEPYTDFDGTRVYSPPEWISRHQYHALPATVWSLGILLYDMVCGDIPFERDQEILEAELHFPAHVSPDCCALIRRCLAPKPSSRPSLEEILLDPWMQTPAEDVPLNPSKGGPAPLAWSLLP

COc1ccc(C=C(C#N)c2cccs2)cc1O [Compound 1c, 2-[1-Cyano-2-(3-hydroxy-4-methoxyphenyl)-(E)-ethenyl)]-thiophene]
tumor weight after treatment (in words) ([1]; extracted tumors after 3 days of treatment, 1c 0–2.5 µM): significant mass reduction | tumor reduction vs PBS-treated controls (in words) ([1]; topical treatment 72 h, 1b 0–10 µM, 1c 0–2.5 µM, sorafenib 10 µM): pronounced tumor reductions | tolerability, mortality and development of chicken embryos ([1]; treated vs untreated eggs): well tolerated | inhibition at 10 µM [2]: 60% | inhibition at 10 µM ([3]; 10 µM compound, cell-free): 89% | IC50 ([3]; concentration range 0.003 to 30 µM, read-out: IC50 against VEGFR-2): 3320 nM | inhibition of EGFR (in words) [4]: no relevant inhibition | inhibition at 10 µM [5]: 71% | inhibition at 10 µM [6]: 75% | inhibition of IGF-1R (in words) [7]: no relevant inhibition | inhibition at 10 µM [8]: 61% | inhibition at 10 µM [9]: 69% | IC50 [10]: 550 ± 260 nM | number of the 43 kinase targets inhibited by more than 50% [11]: six | inhibition of PDGFR (in words) [12]: no relevant inhibition | inhibition of FGFR (in words) [13]: no relevant inhibition | LDH release / unspecific cytotoxicity (in words) [14]: do not exert considerable unspecific cytotoxicity | IC50 [15]: 320 ± 150 nM
